Laboratory results as given in paper PMC2014795 (PLoS Pathogens, 2007).

target: T1, HLA-DR1 (DRB1*0101) (Homo sapiens, UniProt P01903+P01911, A100R/D57E/F55L/F60I/F76Y/I96L/L162R/M171V/P40L/Q125E/R42F/V115G/Y59C); assay: biochemical; format: binding; conditions: not given
T1 construct: the extracellular portion of HLA-DR1 was produced by expression of isolated subunits in Escherichia coli inclusion bodies; made in house

| Compound | IC50 [nM] |
| --- | --- |
| CC[C@H](C)[C@H](NC(=O)[C@H](CC(N)=O)NC(=O)[C@H](CCSC)NC(=O)[C@H](CS)NC(=O)[C@H](CCC(N)=O)NC(=O)[C@@H](NC(=O)[C@@H](NC(=O)[C@H](CCCCN)NC(=O)CN)[C@@H](C)O)[C@@H](C)O)C(=O)N[C@@H](CCSC)C(=O)N[C@@H](CCC(=O)O)C(=O)N[C@@H](CO)C(=O)N[C@H](C(=O)N1CCC[C@H]1C(=O)N[C@@H](C)C(=O)N[C@@H](CC(N)=O)C(=O)N[C@H](C(=O)N[C@H](C(=O)N[C@@H](CCCCN)C(=O)N[C@@H](Cc1ccc(O)cc1)C(=O)N[C@@H](CC(C)C)C(=O)O)[C@@H](C)CC)[C@@H](C)O)[C@@H](C)CC [Peptide 327] | 11 ± 3 |
| CC[C@H](C)[C@H](NC(=O)[C@@H]1CCCN1C(=O)[C@H](CO)NC(=O)CNC(=O)[C@H](CO)NC(=O)[C@H](CC(C)C)NC(=O)[C@H](CC(C)C)NC(=O)[C@H](CC(C)C)NC(=O)[C@H](Cc1ccccc1)NC(=O)[C@@H]1CCCN1C(=O)[C@@H](NC(=O)[C@H](CCCCN)NC(=O)[C@H](CC(N)=O)NC(=O)[C@H](CCCCN)NC(=O)[C@@H](N)CC(N)=O)[C@@H](C)CC)C(=O)N[C@H](C(=O)N[C@@H](CC(N)=O)C(=O)N[C@H](C(=O)N1CCC[C@H]1C(=O)N[C@@H](CC(N)=O)C(=O)N[C@H](C(=O)O)[C@@H](C)O)[C@@H](C)O)[C@@H](C)O [Peptide 316] | 45 ± 19 |
| CC[C@H](C)[C@H](NC(=O)[C@H](C)NC(=O)[C@H](CCCNC(=N)N)NC(=O)[C@@H](NC(=O)[C@@H](NC(=O)[C@@H](NC(=O)[C@H](Cc1ccccc1)NC(=O)[C@H](Cc1c[nH]c2ccccc12)NC(=O)[C@H](Cc1ccccc1)NC(=O)[C@H](CO)NC(=O)[C@H](CC(N)=O)NC(=O)[C@@H]1CCCN1C(=O)[C@@H](N)CCCNC(=N)N)C(C)C)C(C)C)C(C)C)C(=O)N[C@@H](C)C(=O)N[C@@H](CO)C(=O)N[C@@H](CCSC)C(=O)N[C@H](C(=O)N[C@@H](CCSC)C(=O)N[C@@H](Cc1ccc(O)cc1)C(=O)N[C@@H](CC(C)C)C(=O)N[C@H](C(=O)O)C(C)C)[C@@H](C)CC [Peptide 304] | 4000 |
| CC[C@H](C)[C@H](NC(=O)[C@H](Cc1ccccc1)NC(=O)[C@H](CC(C)C)NC(=O)[C@H](CC(C)C)NC(=O)[C@H](CS)NC(=O)[C@@H](NC(=O)[C@H](C)NC(=O)[C@H](C)NC(=O)[C@@H](NC(=O)[C@H](C)NC(=O)[C@@H](NC(=O)[C@@H](NC(=O)[C@@H](NC(=O)[C@H](Cc1ccccc1)NC(=O)[C@H](Cc1ccccc1)NC(=O)[C@@H](NC(=O)[C@H](CO)NC(=O)[C@H](CC(C)C)NC(=O)[C@H](CO)NC(=O)[C@H](CC(N)=O)NC(=O)[C@@H](N)CCSC)[C@@H](C)CC)[C@@H](C)CC)C(C)C)C(C)C)[C@@H](C)O)C(C)C)C(=O)O [Peptide 325] | 580 ± 50 |
| CC[C@H](C)[C@H](NC(=O)CNC(=O)[C@@H](NC(=O)[C@@H]1CCCN1C(=O)[C@@H](NC(=O)CNC(=O)CNC(=O)CNC(=O)[C@@H](N)CC(C)C)[C@@H](C)O)[C@@H](C)CC)C(=O)N[C@H](C(=O)N[C@@H](CO)C(=O)N[C@@H](C)C(=O)N[C@@H](CCC(N)=O)C(=O)N[C@H](C(=O)N[C@@H](CC(C)C)C(=O)N[C@@H](CO)C(=O)N[C@@H](CCC(=O)O)C(=O)N[C@@H](CCCCN)C(=O)N[C@@H](Cc1ccccc1)C(=O)N[C@H](C(=O)N[C@@H](CCC(N)=O)C(=O)O)[C@@H](C)O)C(C)C)[C@@H](C)CC [Peptide 326] | 29 ± 8 |
| CC[C@H](C)[C@H](N)C(=O)N[C@@H](CC(C)C)C(=O)N[C@@H](CCCCN)C(=O)N[C@@H](CO)C(=O)N[C@@H](CC(C)C)C(=O)NCC(=O)N[C@@H](Cc1ccccc1)C(=O)N[C@@H](CCCCN)C(=O)N[C@H](C(=O)N[C@@H](CC(C)C)C(=O)N[C@@H](CC(=O)O)C(=O)NCC(=O)N[C@@H](CO)C(=O)N1CCC[C@H]1C(=O)N[C@H](C(=O)N[C@@H](CO)C(=O)N[C@@H](CC(C)C)C(=O)N[C@@H](CCCNC(=N)N)C(=O)N[C@@H](Cc1ccc(O)cc1)C(=O)NCC(=O)N[C@@H](CO)C(=O)O)[C@@H](C)CC)C(C)C [Peptide 306] | 5 ± 1 |
| CC[C@H](C)[C@H](NC(=O)[C@H](CCCNC(=N)N)NC(=O)[C@H](Cc1ccccc1)NC(=O)[C@H](CC(C)C)NC(=O)[C@H](Cc1ccc(O)cc1)NC(=O)[C@H](CCC(=O)O)NC(=O)[C@H](CO)NC(=O)[C@H](CC(=O)O)NC(=O)[C@@H](N)CCC(=O)O)C(=O)N[C@H](C(=O)N[C@@H](CO)C(=O)N[C@H](C(=O)N[C@H](C(=O)N[C@@H](CC(C)C)C(=O)N1CCC[C@H]1C(=O)N[C@@H](Cc1c[nH]cn1)C(=O)N[C@@H](CC(C)C)C(=O)N[C@@H](CS)C(=O)N[C@@H](CC(C)C)C(=O)N[C@@H](CC(=O)O)C(=O)N[C@@H](Cc1ccc(O)cc1)C(=O)O)C(C)C)[C@@H](C)O)C(C)C [Peptide 334] | 45 ± 8 |
| CC[C@H](C)[C@H](NC(=O)CNC(=O)[C@H](CCCCN)NC(=O)[C@@H](N)Cc1c[nH]c2ccccc12)C(=O)N[C@@H](Cc1ccc(O)cc1)C(=O)N[C@H](C(=O)N[C@@H](Cc1ccc(O)cc1)C(=O)N[C@@H](CCCNC(=N)N)C(=O)N[C@H](C(=O)N[C@H](C(=O)N[C@@H](CCCCN)C(=O)N[C@@H](CO)C(=O)N[C@@H](CO)C(=O)N[C@@H](Cc1ccccc1)C(=O)N1CCC[C@H]1C(=O)N[C@H](C(=O)N1CCC[C@H]1C(=O)N[C@H](C(=O)N[C@H](C(=O)N[C@@H](CCCCN)C(=O)N[C@@H](CO)C(=O)O)[C@@H](C)CC)[C@@H](C)O)C(C)C)[C@@H](C)CC)[C@@H](C)CC)[C@@H](C)O [Peptide 335] | 38 ± 11 |
| CC[C@H](C)[C@H](NC(=O)[C@H](CCSC)NC(=O)[C@H](Cc1ccc(O)cc1)NC(=O)[C@H](Cc1ccccc1)NC(=O)[C@H](CCC(N)=O)NC(=O)[C@@H](NC(=O)CNC(=O)[C@@H](NC(=O)CN)[C@@H](C)O)C(C)C)C(=O)N[C@H](C(=O)N[C@H](C(=O)NCC(=O)N[C@H](C(=O)N[C@H](C(=O)N[C@H](C(=O)N[C@@H](CC(C)C)C(=O)N[C@@H](C)C(=O)N[C@@H](C)C(=O)N[C@@H](CC(C)C)C(=O)N[C@@H](Cc1ccccc1)C(=O)N[C@@H](CCSC)C(=O)O)[C@@H](C)CC)[C@@H](C)CC)C(C)C)[C@@H](C)CC)C(C)C [Peptide 312] | 620 ± 110 |
| CC[C@H](C)[C@H](N)C(=O)N[C@@H](Cc1ccccc1)C(=O)N[C@@H](CCCCN)C(=O)N[C@@H](CC(N)=O)C(=O)N[C@@H](CC(N)=O)C(=O)N[C@@H](CC(=O)O)C(=O)N[C@H](C(=O)N[C@@H](CCCNC(=N)N)C(=O)N[C@H](C(=O)N[C@@H](CC(C)C)C(=O)N[C@@H](CC(C)C)C(=O)NCC(=O)N[C@@H](CC(C)C)C(=O)N[C@H](C(=O)N[C@@H](CC(C)C)C(=O)N[C@@H](Cc1ccccc1)C(=O)N[C@H](C(=O)N[C@@H](CC(C)C)C(=O)N[C@@H](C)C(=O)N[C@@H](CC(C)C)C(=O)N[C@@H](Cc1ccc(O)cc1)C(=O)O)C(C)C)[C@@H](C)CC)[C@@H](C)O)C(C)C [Peptide 322] | 1270 |
| CC[C@H](C)[C@H](NC(=O)[C@H](CO)NC(=O)[C@H](C)NC(=O)[C@H](CC(=O)O)NC(=O)[C@H](CC(C)C)NC(=O)[C@H](CC(C)C)NC(=O)[C@H](CO)NC(=O)[C@H](C)NC(=O)[C@@H](NC(=O)[C@H](CO)NC(=O)[C@@H](NC(=O)[C@@H](NC(=O)[C@@H](NC(=O)[C@@H](NC(=O)[C@@H](NC(=O)[C@H](CCCCN)NC(=O)[C@@H](N)CCSC)C(C)C)C(C)C)[C@@H](C)CC)C(C)C)[C@@H](C)O)C(C)C)C(=O)N[C@@H](CCC(N)=O)C(=O)N[C@@H](Cc1ccccc1)C(=O)N[C@@H](CCC(N)=O)C(=O)N[C@@H](CCCCN)C(=O)O [Peptide 332] | 380 ± 28 |
| CC[C@H](C)[C@H](N)C(=O)N[C@@H](CO)C(=O)N[C@@H](CCC(=O)O)C(=O)N1CCC[C@H]1C(=O)N[C@H](C(=O)N[C@@H](CC(N)=O)C(=O)N[C@H](C(=O)N[C@@H](Cc1ccc(O)cc1)C(=O)N[C@@H](CC(C)C)C(=O)N[C@@H](CC(C)C)C(=O)N[C@@H](C)C(=O)N[C@@H](C)C(=O)N[C@H](C(=O)N[C@@H](Cc1ccc(O)cc1)C(=O)N[C@@H](CO)C(=O)N[C@@H](CC(=O)O)C(=O)N[C@@H](Cc1ccccc1)C(=O)N[C@@H](CC(N)=O)C(=O)N[C@@H](CC(=O)O)C(=O)N[C@@H](CCC(=O)O)C(=O)N[C@H](C(=O)O)C(C)C)C(C)C)C(C)C)C(C)C [Peptide 341] | 32 ± 2 |
| CC[C@H](C)[C@H](NC(=O)CNC(=O)[C@@H](NC(=O)[C@H](CC(C)C)NC(=O)[C@H](CCCCN)NC(=O)[C@H](CC(C)C)NC(=O)[C@H](Cc1ccc(O)cc1)NC(=O)[C@H](CCC(=O)O)NC(=O)[C@H](CCCNC(=N)N)NC(=O)[C@@H](NC(=O)[C@H](CO)NC(=O)[C@@H](NC(=O)[C@@H](N)CC(N)=O)[C@@H](C)O)[C@@H](C)O)[C@@H](C)CC)C(=O)N[C@H](C(=O)N[C@@H](C)C(=O)N[C@H](C(=O)N[C@@H](CCSC)C(=O)N[C@@H](Cc1ccccc1)C(=O)N[C@@H](C)C(=O)N[C@H](C(=O)N[C@@H](Cc1ccc(O)cc1)C(=O)O)[C@@H](C)O)[C@@H](C)CC)[C@@H](C)O [Peptide 308] | 23 ± 5 |
| CC[C@H](C)[C@H](NC(=O)CNC(=O)[C@H](CO)NC(=O)[C@H](CCC(N)=O)NC(=O)[C@H](CC(N)=O)NC(=O)[C@@H](NC(=O)[C@H](Cc1ccccc1)NC(=O)[C@@H]1CCCN1C(=O)[C@H](CCC(=O)O)NC(=O)[C@H](Cc1ccccc1)NC(=O)[C@@H](NC(=O)[C@H](CC(C)C)NC(=O)[C@@H](N)CS)C(C)C)C(C)C)C(=O)N[C@@H](CCC(=O)O)C(=O)N[C@H](C(=O)N[C@@H](CC(C)C)C(=O)N[C@@H](CC(C)C)C(=O)N[C@@H](CC(C)C)C(=O)N[C@@H](Cc1ccc(O)cc1)C(=O)N[C@@H](Cc1ccccc1)C(=O)N[C@@H](CCCCN)C(=O)O)[C@@H](C)CC [Peptide 311] | 3400 |

same assay, conditions: HLA-DR1 competition assay, unpublished data; read-out: IC50

| Compound | IC50 [nM] |
| --- | --- |
| CSCC[C@H](NC(=O)[C@H](CC(=O)O)NC(=O)[C@@H](NC(=O)[C@H](CCCNC(=N)N)NC(=O)[C@H](CCSC)NC(=O)[C@H](Cc1ccccc1)NC(=O)[C@@H]1CCCN1C(=O)[C@@H](NC(=O)[C@H](CCC(N)=O)NC(=O)[C@H](CCCCN)NC(=O)CNC(=O)[C@@H]1CCCN1C(=O)[C@@H](N)CC(N)=O)C(C)C)[C@@H](C)O)C(=O)N[C@@H](CC(C)C)C(=O)O [Peptide B7055] | 11 |
